Drawing on patent publication US20210070748A1, “INHIBITORS OF BRUTONS TYROSINE KINASE” (Pharmacyclics LLC, priority 2015, published 2021), this text covers IC50 for 9 compounds.

SMILES strings stand for the structures.

Assay type in all cases: biochemical
For one assay, the target named is T1, JAK3 (Homo sapiens, UniProt P52333).
T1 sequence (P52333 1-1124): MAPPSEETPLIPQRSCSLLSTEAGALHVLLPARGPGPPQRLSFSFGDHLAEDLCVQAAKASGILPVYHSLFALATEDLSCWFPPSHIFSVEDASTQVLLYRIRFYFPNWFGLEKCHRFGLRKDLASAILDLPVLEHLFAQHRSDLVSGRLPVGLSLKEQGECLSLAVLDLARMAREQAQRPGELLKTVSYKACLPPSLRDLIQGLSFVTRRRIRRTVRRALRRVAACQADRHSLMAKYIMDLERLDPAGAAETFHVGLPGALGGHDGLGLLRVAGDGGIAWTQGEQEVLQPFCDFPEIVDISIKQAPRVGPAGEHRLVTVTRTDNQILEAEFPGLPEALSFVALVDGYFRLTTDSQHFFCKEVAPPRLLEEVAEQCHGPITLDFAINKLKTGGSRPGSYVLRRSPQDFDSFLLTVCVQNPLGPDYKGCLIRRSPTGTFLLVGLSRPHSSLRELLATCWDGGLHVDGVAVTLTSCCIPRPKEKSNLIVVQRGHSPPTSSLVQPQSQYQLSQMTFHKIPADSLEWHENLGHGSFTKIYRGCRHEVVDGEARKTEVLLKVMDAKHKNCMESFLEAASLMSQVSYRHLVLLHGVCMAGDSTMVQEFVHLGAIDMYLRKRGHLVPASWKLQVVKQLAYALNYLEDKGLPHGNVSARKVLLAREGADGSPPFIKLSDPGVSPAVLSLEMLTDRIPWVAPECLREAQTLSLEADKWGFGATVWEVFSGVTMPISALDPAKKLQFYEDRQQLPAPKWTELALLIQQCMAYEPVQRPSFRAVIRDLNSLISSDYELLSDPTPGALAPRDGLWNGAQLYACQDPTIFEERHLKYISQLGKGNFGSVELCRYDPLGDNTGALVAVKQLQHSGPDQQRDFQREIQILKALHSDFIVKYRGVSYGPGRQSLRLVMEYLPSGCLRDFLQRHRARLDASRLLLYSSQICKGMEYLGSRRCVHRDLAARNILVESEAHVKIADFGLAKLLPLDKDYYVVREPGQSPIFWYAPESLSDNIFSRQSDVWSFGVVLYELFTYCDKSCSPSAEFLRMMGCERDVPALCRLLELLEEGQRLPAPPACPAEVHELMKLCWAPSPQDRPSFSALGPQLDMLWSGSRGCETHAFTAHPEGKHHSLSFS
The assay is described as follows: Inhibition of a panel of kinases, in vitro HotSpot kinase assay: JAK3. To be noted: D-compounds panel data; 1 μM ATP; read-out: IC50 JAK3.

Another assay has as its target T2, TEC (Homo sapiens, UniProt P42680).
T2 sequence (P42680 1-631): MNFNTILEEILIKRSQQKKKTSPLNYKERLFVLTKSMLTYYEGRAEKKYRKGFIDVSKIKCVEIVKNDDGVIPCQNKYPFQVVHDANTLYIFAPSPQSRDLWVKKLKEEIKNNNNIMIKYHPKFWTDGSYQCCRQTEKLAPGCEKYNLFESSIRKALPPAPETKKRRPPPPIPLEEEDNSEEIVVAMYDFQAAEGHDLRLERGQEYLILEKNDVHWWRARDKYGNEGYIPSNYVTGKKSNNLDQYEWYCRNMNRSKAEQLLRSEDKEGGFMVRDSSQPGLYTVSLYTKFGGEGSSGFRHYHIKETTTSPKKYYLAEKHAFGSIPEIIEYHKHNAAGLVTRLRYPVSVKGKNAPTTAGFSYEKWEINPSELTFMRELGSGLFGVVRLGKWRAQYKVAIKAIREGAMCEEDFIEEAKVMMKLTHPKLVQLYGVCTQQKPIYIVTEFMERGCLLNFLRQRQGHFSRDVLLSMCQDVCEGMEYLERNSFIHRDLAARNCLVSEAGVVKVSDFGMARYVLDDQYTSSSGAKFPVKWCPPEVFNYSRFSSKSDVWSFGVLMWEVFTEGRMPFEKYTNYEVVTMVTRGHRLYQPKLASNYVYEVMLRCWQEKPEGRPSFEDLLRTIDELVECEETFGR
The assay can be described thus: Inhibition of a panel of kinases, in vitro HotSpot kinase assay: TEC. The conditions noted are these: D-compounds panel data; 1 μM ATP. As for the experimental part:
(§1) The degree of inhibition of a panel of kinases is determined using the in vitro HotSpot kinase assay (purified enzymes, ^33P-ATP, an appropriate substrate and 1 μM ATP).

The target in another assay is SRC (Homo sapiens, UniProt P12931). The assay can be described thus: Inhibition of a panel of kinases, in vitro HotSpot kinase assay: SRC. The conditions noted are these: D-compounds panel data; 1 μM ATP. As for the experimental part: as §1
Sequence of SRC (P12931 whole entry): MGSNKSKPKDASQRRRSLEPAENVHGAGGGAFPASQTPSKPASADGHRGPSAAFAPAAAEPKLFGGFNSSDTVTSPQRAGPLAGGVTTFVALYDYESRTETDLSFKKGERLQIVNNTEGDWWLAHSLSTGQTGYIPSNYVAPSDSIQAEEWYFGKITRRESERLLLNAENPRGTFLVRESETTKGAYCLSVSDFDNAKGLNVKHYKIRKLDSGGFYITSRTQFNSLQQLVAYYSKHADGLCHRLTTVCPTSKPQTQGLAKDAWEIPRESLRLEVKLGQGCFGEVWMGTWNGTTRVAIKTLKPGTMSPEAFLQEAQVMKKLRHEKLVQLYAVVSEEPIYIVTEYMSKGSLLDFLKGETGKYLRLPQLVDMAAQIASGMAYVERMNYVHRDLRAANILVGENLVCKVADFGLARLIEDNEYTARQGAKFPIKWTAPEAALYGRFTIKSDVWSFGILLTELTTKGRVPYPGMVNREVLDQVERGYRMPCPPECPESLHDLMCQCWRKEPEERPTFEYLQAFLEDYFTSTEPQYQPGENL

One may read the IC50 as the concentration that inhibits the measured activity by half. Consider `CN(C)c1ccc2c(c1)CCN([C@@H]1CCCN(c3cnc(C(N)=O)c(Nc4cnn(C)c4)n3)C1)C2=O` [Example D-156, 5-[(3R)-3-[6-(dimethylamino)-1-oxo-1,2,3,4-tetrahydroisoquinolin-2-yl]piperidin-1-yl]-3-[(1-methyl-1H-pyrazol-4-yl)amino]pyrazine-2-carboxamide], for which the IC50 lay in the range of 1000 to 10000 nM on JAK3, 10 to 100 nM against TEC and 100 to 1000 nM against SRC.

Consider `C[C@@H]1[C@H](NC(=O)N(C)C)CCCN1c1cnc(C(N)=O)c(Nc2cc(C3CCN(C4CCCC4)CC3)ns2)n1` [Example D-163, 3-{[3-(1-cyclopentylpiperidin-4-yl)-1,2-thiazol-5-yl]amino}-5-[(2R,3R)-3-[(dimethylcarbamoyl)amino]-2-methylpiperidin-1-yl]pyrazine-2-carboxamide], for which the concentration for half-maximal inhibition (IC50) at JAK3 is 100 to 1000 nM; against TEC, 10 to 100 nM; at SRC it was at most 10 nM.

As for `C[C@@H]1[C@H](NC(=O)c2ccc(C3CC3)cc2)CCCN1c1cnc(C(N)=O)c(Nc2ccc(N3CCC4(CC3)COC4)cc2)n1` [Example D-99, 5-[(2R,3R)-3-(4-cyclopropylbenzamido)-2-methylpiperidin-1-yl]-3-[(4-{2-oxa-7-azaspiro[3.5]nonan-7-yl}phenyl)amino]pyrazine-2-carboxamide], the results for the IC50 on JAK3, against TEC and against SRC were 100 to 1000 nM, at most 10 nM and 100 to 1000 nM, respectively.

On to `C[C@H]1CC[C@@H](NC(=O)c2ccc(C3CC3)cc2)CN1c1cnc(C(N)=O)c(Nc2ccc(N3CCN(C)CC3)cc2)n1` [Example D-154, 5-[(2S,5R)-5-(4-cyclopropylbenzamido)-2-methylpiperidin-1-yl]-3-{[4-(4-methylpiperazin-1-yl)phenyl]amino}pyrazine-2-carboxamide], for which the IC50 at JAK3, at TEC and at SRC was 100 to 1000 nM throughout.

On to `C[C@H]1CC[C@@H](NC(=O)N(C)C)CN1c1cnc(C(N)=O)c(Nc2cnn(C)c2)n1` [Example D-152, 5-[(2S,5R)-5-[(dimethylcarbamoyl)amino]-2-methylpiperidin-1-yl]-3-[(1-methyl-1H-pyrazol-4-yl)amino]pyrazine-2-carboxamide], for which the IC50 was in the range of 1000 to 10000 nM on JAK3, 10 to 100 nM on TEC and 100 to 1000 nM on SRC.

Consider `C[C@@H]1[C@H](NC(=O)c2ccc(C3CC3)cc2F)CCCN1c1cnc(C(N)=O)c(Nc2ccc3cccnc3c2)n1` [Example D-124, 5-[(2R,3R)-3-(4-cyclopropyl-2-fluorobenzamido)-2-methylpiperidin-1-yl]-3-[(quinolin-7-yl)amino]pyrazine-2-carboxamide], for which the IC50 was over 10000 nM at JAK3, 1000 to 10000 nM at TEC and over 10000 nM on SRC.

On to `C[C@@H]1[C@H](NC(=O)c2ccc(C(C)(C)N(C)C)cc2)CCCN1c1cnc(C(N)=O)c(Nc2cnn(C)c2)n1` [Example D-108, 5-[(2R,3R)-3-{4-[2-(dimethylamino)propan-2-yl]benzamido}-2-methylpiperidin-1-yl]-3-[(1-methyl-1H-pyrazol-4-yl)amino]pyrazine-2-carboxamide], for which the IC50 was over 10000 nM at JAK3, 10 to 100 nM on TEC and 10 to 100 nM against SRC.

Turning to `C[C@@H]1CC[C@H](NC(=O)c2ccc(C3CC3)cc2)CN1c1cnc(C(N)=O)c(Nc2ccc(N3CCN(C)CC3)cc2)n1` [Example D-153, 5-[(2R,5S)-5-(4-cyclopropylbenzamido)-2-methylpiperidin-1-yl]-3-{[4-(4-methylpiperazin-1-yl)phenyl]amino}pyrazine-2-carboxamide], the IC50 on JAK3 is 100 to 1000 nM; on TEC, at most 10 nM; against SRC, 10 to 100 nM.

In the case of `CN1CCN(c2ccc(Nc3nc(N4CCC[C@@H](n5ccc6cc(C7CC7)ccc6c5=O)C4)cnc3C(N)=O)cc2)CC1` [Example D-165, 5-[(3R)-3-(6-cyclopropyl-1-oxo-1,2-dihydroisoquinolin-2-yl)piperidin-1-yl]-3-{[4-(4-methylpiperazin-1-yl)phenyl]amino}pyrazine-2-carboxamide], the IC50 is 1000 to 10000 nM on JAK3, 10 to 100 nM against TEC and 100 to 1000 nM against SRC.
